From patent publication US20140057953A1, “BIARYL DERIVATIVES AS SELECTIVE 17BETA-HYDROXYSTEROID DEHYDROGENASE TYPE 2 INHIBITORS” (priority 2011, published 2014)
Read-outs that look alike come from different tables or passages of the source.

Assays:
17β-HSD1 = target: T1, 17β-HSD1 (Homo sapiens, UniProt P14061); experiment: Inhibition of 17β-HSD1 in cell-free assay; format: biochemical; settings: human placenta, cytosolic fraction, substrate E1 500 nM, cofactor NADH 500 μM
T1 construct: For the partial purification of 17β-HSD1, the cytosolic fraction was precipitated with ammonium sulfate; from tissue; host or cells: human placenta, cytosolic fraction
T1 sequence (P14061 1-328): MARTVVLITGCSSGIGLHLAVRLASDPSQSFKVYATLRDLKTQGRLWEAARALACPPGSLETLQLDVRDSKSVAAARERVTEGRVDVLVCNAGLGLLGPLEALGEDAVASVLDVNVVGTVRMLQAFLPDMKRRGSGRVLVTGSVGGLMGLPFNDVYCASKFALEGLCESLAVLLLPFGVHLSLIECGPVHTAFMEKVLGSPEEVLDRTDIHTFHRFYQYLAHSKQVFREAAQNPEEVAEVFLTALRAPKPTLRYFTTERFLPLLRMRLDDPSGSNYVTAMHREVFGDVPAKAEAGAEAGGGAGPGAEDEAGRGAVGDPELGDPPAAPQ
Procedure: (§1) Fresh human placenta was homogenized. Cytosolic and microsomal fractions were separated by centrifugation at 1000 g, 10000 g and 150000 g. 17β-HSD2 was obtained directly from the microsomal fraction. For the partial purification of 17β-HSD1, the cytosolic fraction was precipitated with ammonium sulfate. Aliquots containing 17β-HSD1 or 17β-HSD2 were stored frozen.
The 17β-HSD1 inhibition assay was performed similarly to the 17β-HSD2 test. The cytosolic fraction was incubated with NADH [500 μM], test compound and a mixture of unlabelled- and [^3H]-E1 (final concentration: 500 nM, 0.15 μCi) for 10 min at 37° C. Further treatment of the samples and HPLC separation was carried out as mentioned above for 17β-HSD2.

17β-HSD2 [1] = target: T2, 17β-HSD2 (Homo sapiens, UniProt P37059); experiment: Inhibition of 17β-HSD2 in MDA-MB-231 cellular assay; format: cell-based; settings: MDA-MB-231 cells, substrate [3H]-E2 200 nM
T2 sequence (P37059 1-387): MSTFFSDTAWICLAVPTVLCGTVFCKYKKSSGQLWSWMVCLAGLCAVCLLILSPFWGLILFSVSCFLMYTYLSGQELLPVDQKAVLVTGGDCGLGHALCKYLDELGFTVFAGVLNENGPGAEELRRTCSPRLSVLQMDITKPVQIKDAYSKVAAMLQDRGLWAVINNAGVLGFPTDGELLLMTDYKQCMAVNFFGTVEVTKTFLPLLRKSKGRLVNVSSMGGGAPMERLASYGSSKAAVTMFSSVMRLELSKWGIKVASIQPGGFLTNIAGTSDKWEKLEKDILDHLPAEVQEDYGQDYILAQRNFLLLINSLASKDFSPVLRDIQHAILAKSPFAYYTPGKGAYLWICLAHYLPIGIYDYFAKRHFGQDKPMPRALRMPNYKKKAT
Procedure: [^3H-E2] (200 nM) is used as substrate, and is incubated with the inhibitor for 3.5 h at 37° C. After ether extraction, substrate and product are separated by HPLC and detected with a radioflow detector following the method previously described.

ERα = target: T3, ERα (Homo sapiens, UniProt P03372); experiment: ER affinity assay (ERα), [3H]-E2 displacement; settings: Relative Binding Affinity, E2 = 100%; recombinant human protein
T3 sequence (P03372 1-595): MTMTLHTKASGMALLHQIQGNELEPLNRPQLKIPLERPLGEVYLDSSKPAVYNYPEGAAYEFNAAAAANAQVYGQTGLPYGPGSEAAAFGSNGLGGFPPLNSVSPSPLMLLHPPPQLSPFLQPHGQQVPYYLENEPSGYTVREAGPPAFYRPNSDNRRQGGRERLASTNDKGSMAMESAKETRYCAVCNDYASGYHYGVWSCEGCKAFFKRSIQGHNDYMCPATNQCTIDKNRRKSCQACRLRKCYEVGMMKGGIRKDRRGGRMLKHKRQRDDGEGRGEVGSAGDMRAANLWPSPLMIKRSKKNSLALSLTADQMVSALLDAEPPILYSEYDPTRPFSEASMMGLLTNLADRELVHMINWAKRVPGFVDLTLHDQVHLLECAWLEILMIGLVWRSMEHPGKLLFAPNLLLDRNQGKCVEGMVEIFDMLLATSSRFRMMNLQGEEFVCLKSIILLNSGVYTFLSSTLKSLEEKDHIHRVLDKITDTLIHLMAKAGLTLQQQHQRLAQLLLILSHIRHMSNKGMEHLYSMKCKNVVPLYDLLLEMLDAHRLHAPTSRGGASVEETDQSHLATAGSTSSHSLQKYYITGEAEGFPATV
Procedure: (§2) The binding affinity of selected compounds to the ERα and ERβ was determined according to Zimmermann et al. (Zimmermann, J. et al., 3. Steroid Biochem. Mol. Biol., 94:57-66 (2005)) using recombinant human proteins. Briefly, 0.25 μM of ERα or ERβ, respectively, were incubated with [^3H]-E2 (10 nM) and test compound for 1 h at room temperature. The potential inhibitors were dissolved in DMSO (5% final concentration). Evaluation of non-specific-binding was performed with diethylstilbestrol (10 μM). After incubation, ligand-receptor complexes were selectively bound to hydroxyapatite (5 g/60 ml TE-buffer). The formed complex was separated, washed and resuspended in ethanol. For radiodetection, scintillator cocktail (Quickszint 212, Zinsser Analytic, Frankfurt) was added and the samples were measured in a liquid scintillation counter (Rack Beta Primo 1209, Wallac, Turku). […] The compound concentration to displace 50% of the receptor bound [^3H]-E2 were determined. Unlabelled E2 was used as a reference. For determination of the relative binding affinity (RBA) the ratio was calculated according to the following equation: […]
(§3) After the assay was established and validated a modification was made to increase throughput. […] Results were reported as RBA ranges.

ERβ = ERβ (Homo sapiens, UniProt Q92731); experiment: ER affinity assay (ERβ), [3H]-E2 displacement; settings: Relative Binding Affinity, E2 = 100%; recombinant human protein
Procedure: as §2, §3

17β-HSD2 [2] = target: T2, 17β-HSD2; experiment: Inhibition of 17β-HSD2 in cell-free assay; format: biochemical; set-up: 17β-HSD2 was obtained directly from the microsomal fraction; from tissue; host or cells: human placenta, microsomal fraction; settings: human placenta, microsomal fraction, substrate E2 500 nM, cofactor NAD+ 1500 μM
Procedure: as §1
Inhibitor stock solutions were prepared in DMSO. Final concentration of DMSO was adjusted to 1% in all samples. The enzymatic reaction was started by addition of a mixture of unlabelled- and [^3H]-E2 (final concentration: 500 nM, 0.11 μCi). After 20 min at 37° C., the incubation was stopped with HgCl2 and the mixture was extracted with ether. After evaporation, the steroids were dissolved in acetonitrile. E1 and E2 were separated using acetonitrile/water (45:55) as mobile phase in a C18 RP chromatography column (Nucleodur C18, 3 μm, Macherey-Nagel, Duren) connected to a HPLC-system (Agilent 1100 Series, Agilent Technologies, Waldbronn). Detection and quantification of the steroids were performed using a radioflow detector (Berthold Technologies, Bad Wildbad). The conversion rate was calculated according to the following equation: […]

17β-HSD2 [3] = target: T2, 17β-HSD2; settings: cited from earlier work
osteoporosis model = settings: monkeys; cited from earlier work

Chain of ERβ (Q92731 whole entry): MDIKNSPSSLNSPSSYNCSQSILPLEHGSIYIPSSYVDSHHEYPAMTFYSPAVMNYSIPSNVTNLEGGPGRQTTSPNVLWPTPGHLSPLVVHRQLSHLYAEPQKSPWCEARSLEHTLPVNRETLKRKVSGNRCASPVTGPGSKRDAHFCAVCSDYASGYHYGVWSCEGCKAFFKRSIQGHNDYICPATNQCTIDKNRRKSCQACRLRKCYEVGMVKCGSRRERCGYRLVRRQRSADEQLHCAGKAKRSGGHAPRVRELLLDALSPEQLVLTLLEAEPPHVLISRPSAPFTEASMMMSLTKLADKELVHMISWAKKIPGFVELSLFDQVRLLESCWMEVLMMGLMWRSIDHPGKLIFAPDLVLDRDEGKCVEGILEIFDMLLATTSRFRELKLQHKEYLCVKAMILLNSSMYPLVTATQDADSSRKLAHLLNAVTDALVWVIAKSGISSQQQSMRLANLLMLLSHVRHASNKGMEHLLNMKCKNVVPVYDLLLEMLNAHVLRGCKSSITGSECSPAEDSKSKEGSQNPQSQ

SMILES | IC50 (17β-HSD1) [nM] | inhibition at 1 µM (17β-HSD2 [1]) [%] | ERα RBA (%) (ERα) | ERβ RBA (%) (ERβ) | IC50 (17β-HSD2 [2]) [nM] | inhibitory activity (17β-HSD2) (17β-HSD2 [3]; at 100 nM) [%] | inhibitory activity (17β-HSD2) (17β-HSD2 [3]; at 1 μM) [%] | effect on local level of E2 and T in bones (osteoporosis model)
COc1cccc(N(C)C(=O)c2ccc(-c3cccc(OC)c3F)s2)c1 [compound 56, 5-(2-Fluoro-3-methoxyphenyl)-N-(3-methoxyphenyl)-N-methylthiophene-2-carboxamide] | – | 70 | <0.1 | <0.1 | 62 | – | – | –
COc1cccc(N(C)C(=O)c2ccc(-c3ccccc3)s2)c1 [compound 51, N-(3-Methoxyphenyl)-N-methyl-5-phenylthiophene-2-carboxamide] | 4340 | 67 | <0.1 | <0.1 | 207 | – | – | –
COc1ccc(-c2ccc(C(=O)N(C)Cc3cccc(O)c3)s2)cc1 [compound 39, N-(3-Hydroxybenzyl)-5-(4-methoxyphenyl)-N-methylthiophene-2-carboxamide] | > 40000 | 88 | <0.1 | <0.1 | 161 | – | – | –
Cc1cccc(-c2ccc(C(=O)N(C)Cc3cccc(O)c3)s2)c1 [compound 46, N-(3-Hydroxybenzyl)-N-methyl-5-m-tolylthiophene-2-carboxamide] | 10600 | – | <0.1 | <0.1 | 163 | – | – | –
C[C@]12CCC3c4ccc(O)cc4CCC3C1CC[C@@]21CCCC(=O)O1 (stereo partly drawn) [C17-spirolactone 1] | – | – | – | – | – | 40 | 70 | –
CN1C(=O)C[C@H](c2ccccc2)[C@@H]1[C@H](O)c1ccc(-c2cccnc2)s1 [inhibitor 3] | – | – | – | – | – | – | – | helps to maintain a sufficient local level of E2 and T in bones
CN(Cc1cccc(O)c1)C(=O)c1ccc(-c2ccccc2O)s1 [compound 28, N-(3-Hydroxybenzyl)-5-(2-hydroxyphenyl)-N-methylthiophene-2-carboxamide] | 2980 | 75 | <0.1 | <0.1 | 148 | – | – | –

The next lines start with results.

IC50 (17β-HSD1) [nM] | inhibition at 1 µM (17β-HSD2 [1]) [%] | ERα RBA (%) (ERα) | ERβ RBA (%) (ERβ) | IC50 (17β-HSD2 [2]) [nM] | SMILES | inhibitory activity (17β-HSD2) (17β-HSD2 [3]; at 100 nM) [%] | inhibitory activity (17β-HSD2) (17β-HSD2 [3]; at 1 μM) [%] | effect on local level of E2 and T in bones (osteoporosis model)
11500 | 50 | <0.1 | <0.1 | 207 | COc1cccc(-c2ccc(C(=O)N(C)c3cccc(C)c3)s2)c1 [compound 70, 5-(3-Methoxyphenyl)-N-methyl-N-m-tolylthiophene-2-carboxamide] | – | – | –
10600 | – | <0.1 | <0.1 | 169 | COc1cccc(N(C)C(=O)c2ccc(-c3cccc(N(C)C)c3)s2)c1 [compound 58, 5-(3-(Dimethylamino)phenyl)-N-(3-methoxyphenyl)-N-methylthiophene-2-carboxamide] | – | – | –
> 40000 | – | <0.1 | <0.1 | 242 | COc1cccc(N(C)C(=O)c2ccc(-c3ccc(OC)c(F)c3)s2)c1 [compound 61, 5-(3-Fluoro-4-methoxyphenyl)-N-(3-methoxyphenyl)-N-methylthiophene-2-carboxamide] | – | – | –
